From PubChem BioAssay AID330 (DTP/NCI, 2004)
Several values for one entry are separate records, joined by “and”; a condition that tells them apart may be missing. Equal entries are not always repeated. Inconclusive results and toxic doses are left out. Rule for the calls: active = survival T/C of 150% or more; inactive = T/C below 125% in these data.

Tested on: P388 leukemia ip, CD2F1 mice, survival T/C
Experiment: NCI In Vivo Anticancer Drug Screen. Data for tumor model P388 Leukemia (intraperitoneal) in CD2F1 (CDF1) mice
Conditions: endpoint: median survival time, higher = longer survival
In short: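 Mice carrying the transplanted tumor received test compound or vehicle. Survival was recorded in each group, and the value is the treated-group measurement divided by that of the vehicle-treated control group.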

[1] = dose: 60.0 mg/kg/injection, schedule: Q01DX005 (ip), vehicle: saline with Tween-80
[2] = dose: 120.0 mg/kg/injection, schedule: Q01DX005 (ip), vehicle: saline with Tween-80
[3] = dose: 50.0 mg/kg/injection, schedule: Q01DX005 (ip), vehicle: Klucel (hydroxypropylcellulose) (HPC)
[4] = dose: 100.0 mg/kg/injection, schedule: Q01DX005 (ip), vehicle: Klucel (hydroxypropylcellulose) (HPC)
[5] = dose: 200.0 mg/kg/injection, schedule: Q01DX005 (ip), vehicle: Klucel (hydroxypropylcellulose) (HPC)
[6] = dose: 12.5 mg/kg/injection, schedule: Q01DX009 (ip), vehicle: saline with Tween-80
[7] = dose: 12.5 mg/kg/injection, schedule: Q01DX009 (ip), vehicle: saline
[8] = dose: 25.0 mg/kg/injection, schedule: Q01DX009 (ip), vehicle: saline with Tween-80
[9] = dose: 50.0 mg/kg/injection, schedule: Q01DX009 (ip), vehicle: saline with Tween-80
[10] = dose: 50.0 mg/kg/injection, schedule: Q01DX009 (ip), vehicle: saline
[11] = dose: 100.0 mg/kg/injection, schedule: Q01DX009 (ip), vehicle: saline with Tween-80
[12] = dose: 100.0 mg/kg/injection, schedule: Q01DX009 (ip), vehicle: saline
[13] = dose: 200.0 mg/kg/injection, schedule: Q01DX009 (ip), vehicle: saline with Tween-80
[14] = dose: 50.0 mg/kg/injection, schedule: Q01DX005 (ip), vehicle: saline with Tween-80
[15] = dose: 100.0 mg/kg/injection, schedule: Q01DX005 (ip), vehicle: saline with Tween-80
[16] = dose: 200.0 mg/kg/injection, schedule: Q01DX005 (ip), vehicle: saline with Tween-80
[17] = dose: 100.0 mg/kg/injection, schedule: Q04DX003 (ip), vehicle: saline with Tween-80
[18] = dose: 200.0 mg/kg/injection, schedule: Q04DX003 (ip), vehicle: saline with Tween-80
[19] = dose: 50.0 mg/kg/injection, schedule: Q01DX009 (ip), vehicle: saline + Tween-80 + alcohol

Measured: T/C

O=C1CC[C@@H](NC(=O)Cc2ccccc2)C(=O)N1
inactive: dose: 7.5 mg/kg/injection, schedule: Q01DX005 (ip), vehicle: saline with Tween-80 103 % of control | dose: 15.0 mg/kg/injection, schedule: Q01DX005 (ip), vehicle: saline with Tween-80 97 % of control | dose: 30.0 mg/kg/injection, schedule: Q01DX005 (ip), vehicle: saline with Tween-80 98 % of control and 101 % of control | dose: 31.25 mg/kg/injection, schedule: Q01DX005 (ip), vehicle: saline with Tween-80 102 % of control | [1] 94 % of control and 96 % of control | dose: 62.5 mg/kg/injection, schedule: Q01DX005 (ip), vehicle: saline with Tween-80 101 % of control | [2] 88 % of control | dose: 125.0 mg/kg/injection, schedule: Q01DX005 (ip), vehicle: saline with Tween-80 99 % of control and 93 % of control | dose: 250.0 mg/kg/injection, schedule: Q01DX005 (ip), vehicle: saline with Tween-80 90 % of control | dose: 500.0 mg/kg/injection, schedule: Q01DX005 (ip), vehicle: saline with Tween-80 89 % of control

[Cl][Sn]([CH2]C[CH2][Sn]([Cl])([c]1ccccc1)[c]1ccccc1)([c]1ccccc1)[c]1ccccc1
inactive: dose: 3.12 mg/kg/injection, schedule: Q01DX005 (ip), vehicle: Klucel (hydroxypropylcellulose) (HPC) 99 % of control | dose: 6.25 mg/kg/injection, schedule: Q01DX005 (ip), vehicle: Klucel (hydroxypropylcellulose) (HPC) 99 % of control | dose: 12.5 mg/kg/injection, schedule: Q01DX005 (ip), vehicle: Klucel (hydroxypropylcellulose) (HPC) 98 % of control

c1ccc(SC(Sc2ccccc2)=C2CCCCC2)cc1
inactive: dose: 50.0 mg/kg/injection, schedule: Q01DX009 (ip), vehicle: Klucel (hydroxypropylcellulose) (HPC) 100 % of control | dose: 100.0 mg/kg/injection, schedule: Q01DX009 (ip), vehicle: Klucel (hydroxypropylcellulose) (HPC) 106 % of control | dose: 200.0 mg/kg/injection, schedule: Q01DX009 (ip), vehicle: Klucel (hydroxypropylcellulose) (HPC) 90 % of control

COc1cc(/C=C/c2ccncc2)ccc1OC(C)=O
inactive: dose: 25.0 mg/kg/injection, schedule: Q01DX005 (ip), vehicle: Klucel (hydroxypropylcellulose) (HPC) 100 % of control | [3] 100 % of control | [4] 101 % of control | [5] 100 % of control

CCCC(=O)Nc1nc2ccc([N+](=O)[O-])cc2s1
inactive: [6] 106 % of control | [7] 97 % of control | [8] 97 % of control | dose: 25.0 mg/kg/injection, schedule: Q01DX009 (ip), vehicle: saline 98 % of control | [9] 99 % of control and 123 % of control | [10] 98 % of control | [11] 110 % of control and 96 % of control | [12] 101 % of control | [13] 108 % of control

c1ccc2c(-c3nccc4ccccc34)nccc2c1
inactive: [14] 99 % of control | [15] 103 % of control | [16] 92 % of control

O=C(NC1CCCCC1)C(=NC1CCCCC1)c1cc(Cl)c(Cl)c(Cl)c1Cl
inactive: dose: 50.0 mg/kg/injection, schedule: Q04DX003 (ip), vehicle: saline with Tween-80 98 % of control | [17] 98 % of control | [18] 87 % of control

CCOC(=O)C1C2(C)NC(=O)C1(Cc1ccccc1)c1cc(C)c(C)cc1O2 (stereo not given)
inactive: [14] 99 % of control | [15] 96 % of control | [16] 87 % of control

Cc1nnc(Cl)c(C#N)c1C
inactive: [3] 104 % of control | [4] 92 % of control | [5] 95 % of control

O=C(O)c1ccccc1NCc1ccco1
inactive: [14] 91 % of control | [15] 96 % of control | [16] 89 % of control

C(CCCSC1=NCCN1)CCSC1=NCCN1
inactive: [10] 103 % of control | [12] 100 % of control

O=C1C=CCCCC1
inactive: dose: 12.5 mg/kg/injection, schedule: Q01DX009 (ip), vehicle: saline + Tween-80 + alcohol 102 % of control | dose: 25.0 mg/kg/injection, schedule: Q01DX009 (ip), vehicle: saline + Tween-80 + alcohol 98 % of control | dose: 44.0 mg/kg/injection, schedule: Q01DX009 (ip), vehicle: saline with Tween-80 109 % of control | [19] 100 % of control | dose: 66.0 mg/kg/injection, schedule: Q01DX009 (ip), vehicle: saline with Tween-80 109 % of control

CCOC(=O)Cc1cn2cc(Cl)cc(Cl)c2n1
inactive: [17] 111 % of control | [18] 100 % of control | dose: 400.0 mg/kg/injection, schedule: Q04DX003 (ip), vehicle: saline with Tween-80 100 % of control

Cc1nc(N)c2nonc2n1
inactive: dose: 25.0 mg/kg/injection, schedule: Q04DX003 (ip), vehicle: suspension in saline 98 % of control | dose: 50.0 mg/kg/injection, schedule: Q04DX003 (ip), vehicle: suspension in saline 103 % of control | dose: 100.0 mg/kg/injection, schedule: Q04DX003 (ip), vehicle: suspension in saline 94 % of control | dose: 200.0 mg/kg/injection, schedule: Q04DX003 (ip), vehicle: suspension in saline 95 % of control

CCCCOC(=S)Nc1ccccc1
inactive: [19] 99 % of control | [9] 104 % of control | dose: 100.0 mg/kg/injection, schedule: Q01DX009 (ip), vehicle: saline + Tween-80 + alcohol 108 % of control | [11] 100 % of control | dose: 200.0 mg/kg/injection, schedule: Q01DX009 (ip), vehicle: saline + Tween-80 + alcohol 98 % of control | [13] 98 % of control | dose: 400.0 mg/kg/injection, schedule: Q01DX009 (ip), vehicle: saline + Tween-80 + alcohol 97 % of control | dose: 400.0 mg/kg/injection, schedule: Q01DX009 (ip), vehicle: saline with Tween-80 110 % of control

CSCCC([NH-])C(=O)O.CSCCC([NH-])C(=O)O.[Cu+2] (stereo not given)
inactive: dose: 3.12 mg/kg/injection, schedule: Q01DX009 (ip), vehicle: saline 102 % of control | dose: 6.25 mg/kg/injection, schedule: Q01DX009 (ip), vehicle: Klucel (hydroxypropylcellulose) (HPC) 94 % of control | dose: 6.25 mg/kg/injection, schedule: Q01DX009 (ip), vehicle: saline 94 % of control | dose: 12.5 mg/kg/injection, schedule: Q01DX009 (ip), vehicle: Klucel (hydroxypropylcellulose) (HPC) 94 % of control | [7] 100 % of control

CN1CCN(c2ccncc2S(=O)(=O)N2CCN(C)CC2)CC1
inactive: [10] 97 % of control | [12] 97 % of control | dose: 200.0 mg/kg/injection, schedule: Q01DX009 (ip), vehicle: saline 87 % of control

Cc1cc(OCCCCOc2ccc(C#N)cc2)ccc1[N+](=O)[O-]
inactive: [1] 96 % of control | [2] 90 % of control | dose: 240.0 mg/kg/injection, schedule: Q01DX005 (ip), vehicle: saline with Tween-80 88 % of control

C/C=C/C[P+](C)(c1ccccc1)c1ccccc1
inactive: dose: 0.75 mg/kg/injection, schedule: Q01DX009 (ip), vehicle: saline 104 % of control

c1ccc(P(CCNCCP(c2ccccc2)c2ccccc2)c2ccccc2)cc1
inactive: [14] 105 % of control | [15] 109 % of control

N#C/C=C1\C=CC(O)C(O)C1OC1OC(CO)C(O)C(O)C1O (stereo not given)
inactive: dose: 6.0 mg/kg/injection, schedule: Q01DX009 (ip), vehicle: saline 103 % of control | dose: 12.0 mg/kg/injection, schedule: Q01DX009 (ip), vehicle: saline 103 % of control | dose: 24.0 mg/kg/injection, schedule: Q01DX009 (ip), vehicle: saline 100 % of control | dose: 48.0 mg/kg/injection, schedule: Q01DX009 (ip), vehicle: saline 105 % of control

O=[N+]([O-])/C=C\c1cc2c3c(c1)CCCN3CCC2
inactive: [6] 100 % of control | [8] 109 % of control | [9] 109 % of control

Cc1ccc(S(=O)(=O)NN=C2[C@H]3CC=CC[C@H]3C(=NNS(=O)(=O)c3ccc(C)cc3)[C@@H]3CC=CC[C@H]23)cc1
inactive: [14] 90 % of control | [15] 87 % of control | [16] 103 % of control
